Assay results published in PMC12948223, “HSP70 Interactome‐Mediated Proteolysis Targeting Chimera (HSP70‐PROTAC) for Ferroptosis‐Driven Cancer Treatment” (Advanced Science, 2025).

Legend:
GPX1 = target: T1, GPX1 (Homo sapiens, UniProt P07203); assay: Western blot of GPX1 in HT1080 cells; format: cell-based; conditions: 24 h
T1 construct: endogenous in cells; host or cells: HT1080
T1 sequence (P07203 1-203): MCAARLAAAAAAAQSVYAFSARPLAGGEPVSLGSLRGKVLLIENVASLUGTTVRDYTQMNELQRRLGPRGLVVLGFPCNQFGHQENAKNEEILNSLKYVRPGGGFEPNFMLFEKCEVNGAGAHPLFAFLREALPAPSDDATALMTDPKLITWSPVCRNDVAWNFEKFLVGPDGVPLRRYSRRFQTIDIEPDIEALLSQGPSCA

GPX4 = target: T2, GPX4 (Mus musculus, UniProt O70325); assay: GPX4 degradation by western blot in B16-F10 cells; format: cell-based; conditions: 3 µM, 24 h
T2 construct: endogenous in cells; host or cells: B16-F10
T2 sequence (O70325 1-170 isoform O70325-2): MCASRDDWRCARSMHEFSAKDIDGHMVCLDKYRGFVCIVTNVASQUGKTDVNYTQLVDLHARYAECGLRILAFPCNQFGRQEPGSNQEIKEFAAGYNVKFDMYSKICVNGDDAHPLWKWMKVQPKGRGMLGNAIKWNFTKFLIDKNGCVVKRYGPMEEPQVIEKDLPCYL
Procedure: To further confirm this degradation efficacy, an in‐cell western (ICW) assay, a quantitative immunofluorescence cell‐based technique, was performed to quantify the relative expression level of GPX4 after treatment with GDAz‐3 for 24 h. […] Given the promising GPX4 degradation activity of GDAz‐3, we extended our evaluation to additional ferroptosis‐sensitive cell lines, including triple‐negative breast cancer cells (MDA‐MB‐231) and melanoma cells (mouse B16‐F10). […] Based on the observation that GDAz‐3 was particularly effective in HT1080 cells, we selected this cell line for further degradation mechanism and ferroptosis pharmacodynamics studies.
Cells were seeded at a density of 4 × 10^5 cells well^−1 in 6‐well plates and allowed to incubate overnight. Cells were incubated with the indicated treatments. Thereafter, the cells were collected and lysed with RIPA buffer containing serine protease and phosphatase inhibitors for 30 min on ice. Proteins were quantified by using a BCA protein assay kit (Beyotime). […] Ultimately, the membrane was washed five times, and the antibody‐protein complexes were visualized using an ECL luminescence reagent (Biosharp, Shanghai, China). The relative intensities of the bands were analyzed by ImageJ and normalized to a loading control.

SLC7A11 = assay: Western blot of SLC7A11 in HT1080 cells; format: cell-based, human; conditions: 24 h
MDA = MDA content in HT1080 cells; format: cell-based, human; conditions: HT1080 cells, 0.1, 0.5 and 1 µM, 24 h
Procedure: HT1080 cells were seeded into 10‐cm diameter culture dishes at a density of 2 × 10⁶ cells overnight and then exposed to GDAz‐3 (0.1, 0.5, and 1 µM). The cells were cultured for another 24 h, and the culture medium was discarded, washed with PBS, and lysed using IP lysis buffer (Servicebio, G2038). After lysis, the samples were centrifuged at 12 000 × g for 15 min at 4 °C. The supernatant was collected, and the MDA content was determined according to the instructions of the Lipid Peroxidation MDA Assay Kit (Beyotime Biotechnology, S00131S).

[1] = Relative drug biodistribution in HT1080 xenograft mice (LC-MS/MS); format: in vivo, nude mice; conditions: 50 mg/kg, 12 h, n = 1
From the text: In addition, the tumor samples from the six treatment groups were randomly collected and probed for the levels of GPX4, and 4‐HNE (4‐hydroxynonenal, a lipid peroxidation marker) by immunohistochemistry (IHC) staining (Figure 7G). […] Collectively, the HSP70‐PROTAC GDAz‐3 has been confirmed as an effective ferroptosis‐inducing agent, which can degrade GPX4 both in vitro and in vivo via UPS and CMA dual processes.
GDAz‐3 was intravenously injected into an HT1080‐bearing xenograft tumor mouse model at 50 mg kg^−1. After 12 h of treatment, samples of tumor tissue and major organs, including the heart, liver, spleen, lung, kidney, and intestine, were collected. After weighing, these samples were processed into homogenates, and 500 µL of cold methanol was added. After thorough mixing, the supernatant was generated by centrifugation (4 °C, 12 000 rpm, 15 min), and then analyzed by liquid chromatography‐tandem mass spectrometry (Agilent 6495C Triple Quadrupole LC/MS). In brief, a volume of 1 µL from each sample was extracted and injected into a Waters Acquity Premmier BEH C18 (2.1 × 50 mm, 1.7 µm) column. The solvent delivery module was used to deliver an HPLC gradient of 20–95% B over 7 min (A: 0.1% formic acid in water, B: acetonitrile) at a flow rate of 0.3 mL min^−1. […] The quantification was performed based on peak area. […]

GSH = assay: Intracellular GSH in HT1080 cells; format: cell-based, human; conditions: 0.5 and 1 µM, 24 h
Procedure: HT1080 cells were seeded into 10‐cm‐diameter culture dishes at a density of 2 × 10⁶ cells overnight and then exposed to GDAz‐3 (0.1, 0.5, and 1 µM). Followed by 24‐h incubation, the culture medium was discarded, and the cells were digested with trypsin. The cells were collected and washed with PBS, and threefold of protein removal reagent S was added. Two freeze‐thaw cycles were performed using liquid nitrogen and a 37 °C water bath, followed by a 5‐min ice bath. The samples were centrifuged at 10 000 × g for 10 min at 4 °C. The supernatant was collected and measured according to the instructions of the Total Glutathione Assay Kit (Beyotime Biotechnology, S0052) using a kinetic assay method.

SMILES: COc1ccc(-c2nc(-c3cc(C(F)(F)F)cc(C(F)(F)F)c3)n(Cc3ccc(C(=O)NCCOCCOCCOCCn4cc(COc5ccc(N(C(=O)CCl)C(C(=O)NCCc6ccccc6)c6cccs6)cc5Cl)nn4)cc3)c2-c2ccc(OC)cc2)cc1 (stereo not drawn) [GDAz-3, 4-((2-(3,5-bis(trifluoromethyl)phenyl)-4,5-bis(4-methoxyphenyl)-1H-imidazol-1-yl)methyl)-N-(2-(2-(2-(2-(4-((2-chloro-4-(2-chloro-N-(2-oxo-2-(phenethylamino)-1-(thiophen-2-yl)ethyl)acetamido)phenoxy)methyl)-1H-1,2,3-triazol-1-yl)ethoxy)ethoxy)ethoxy)ethyl)benzamide]
- Effect on GPX1 protein (GPX1): did not show a significant effect
- GPX4 level (GPX4): markedly decreased GPX4 level
- Effect on SLC7A11 protein (SLC7A11): did not show a significant effect
- Content of MDA (MDA): increased
- Concentration in tumor tissue relative to other tissues [1]: significantly higher than that in other tissues
- Level of intracellular GSH (GSH): significantly decreased
